Source: patent US20170268001A1, “RNAS WITH TUMOR RADIO/CHEMO-SENSITIZING AND IMMUNOMODULATORY PROPERTIES AND METHODS OF THEIR PREPARATION AND APPLICATION” (THE UNIVERSITY OF CHICAGO, priority 2016, published 2017)

T1: RIG-I (Homo sapiens, UniProt O95786, K858A/K861A)
T1 construct: HEK293 cells overexpressing either the full length RIG-I; host or cells: HEK293; HCT116 also for the qRT-PCR validation
T1 sequence (O95786 1-925 K858A/K861A): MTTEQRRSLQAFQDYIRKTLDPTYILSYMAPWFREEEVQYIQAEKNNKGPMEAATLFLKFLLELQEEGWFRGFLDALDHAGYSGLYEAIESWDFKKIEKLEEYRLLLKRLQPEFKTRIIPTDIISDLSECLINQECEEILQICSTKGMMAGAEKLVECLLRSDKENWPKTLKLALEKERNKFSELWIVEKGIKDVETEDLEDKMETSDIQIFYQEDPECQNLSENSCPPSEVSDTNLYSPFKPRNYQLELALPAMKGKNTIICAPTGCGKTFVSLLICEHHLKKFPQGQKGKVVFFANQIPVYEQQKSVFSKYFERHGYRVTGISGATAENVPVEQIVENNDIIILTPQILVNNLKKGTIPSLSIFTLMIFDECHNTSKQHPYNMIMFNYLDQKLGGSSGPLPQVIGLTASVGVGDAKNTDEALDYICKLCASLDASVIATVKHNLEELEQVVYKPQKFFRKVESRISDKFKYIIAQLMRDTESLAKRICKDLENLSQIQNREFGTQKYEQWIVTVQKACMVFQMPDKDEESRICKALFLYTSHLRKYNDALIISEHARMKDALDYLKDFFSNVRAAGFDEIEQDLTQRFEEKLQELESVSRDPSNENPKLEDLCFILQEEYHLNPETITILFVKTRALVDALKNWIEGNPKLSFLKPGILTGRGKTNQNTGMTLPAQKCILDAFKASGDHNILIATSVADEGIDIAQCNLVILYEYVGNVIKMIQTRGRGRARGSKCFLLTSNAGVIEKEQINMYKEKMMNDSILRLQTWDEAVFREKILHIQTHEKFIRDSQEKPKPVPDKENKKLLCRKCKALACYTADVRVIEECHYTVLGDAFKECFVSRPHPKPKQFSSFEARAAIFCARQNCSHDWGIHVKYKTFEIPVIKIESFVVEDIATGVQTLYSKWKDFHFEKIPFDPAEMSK

B1: M5: rbRNA, RIG-I agonist, 81 nucleotides, SEQ ID NO:26 (nucleic acid)
chain: GACGAAGACCACAAAACCAGATAAAAAATTATTTTTTATCTGGTTTTGTGGTCTTCGTCTATAGTGAGTCGTATTAATTTC
modifications: listed as DNA, chemistry not given here

Molecular target: T1, RIG-I
Assay: UV cross-linking with quantitative real-time PCR (CLIP-PCR) of RIG-I complexes
Assay type: binding
Method: Graphic representation indicating the distribution of non-coding and repetitive RNA molecules bound to RIG-I following exposure to IR as compared to total irradiated cellular RNA. Transcripts were mapped to reference genomes using RepeatMasker. See Methods for further details. […] Cells were UV crosslinked at 150 mJ/cm^2 48 hours post-IR treatment prior to cell lysis. […] FIG. 29H show IFN-b levels in culture supernatant from ICR RIG-I^+/+ and primary MEFs 24 hours post-stimulation with the same set of synthetic U1 oligonucleotides used in (FIG. 29G) The amount of U1 synthetic oligonucleotides used in all stimulation experiments was 1 μg. P values were determined using unpaired Student's t-test. Error bars are SEM. ***P<0.005.
Technically, identification of RNAs was performed as follows: HEK293 cells were transiently transfected with 3×FLAG-tagged full-size RIG-I in pEF-BOS vector (Addgene; Cambridge, Mass.). Twenty-four hours post-transfection, cells were either mock-irradiated or exposed to IR (6 Gy). Forty-eight hours post-IR, cells were lysed with a modified lysis buffer (50 mM Tris-Cl pH 7.5, 0.15 M NaCl, 0.1% NP-40, 1.0% Triton X-100, 1 mM EDTA pH8.0, 1 mM EGTA pH8.0, 10% Glycerol, 2.5 mM MgCl2, 1 mM DTT, 0.1 mM ATP, and 1× Halt Protease Inhibitor) and incubated on ice for 1 hour. Cell lysates were separated from cell debris by centrifugation at 12,000 rpm at 4° C. Protein concentration was measured by BCA kit. Anti-FLAG monoclonal antibody was added to the cell lysate at a 1:500 dilution, and incubated overnight at 4° C. Protein G sepharose beads were added to the lysates and incubated for at least 2 hours at 4° C. Beads containing the antibody-RIG-I complexes were washed five times in wash buffer (50 mM Tris-Cl pH 7.5, 0.15 M NaCl, 1 mM MgCl2, 0.05% NP-40, 1 mM DTT) and proteins were eluted from the beads using a soft elution buffer (0.5% SDS, 0.1% Tween-20, 50 mM Tris pH 8.0) for 10 minutes at room temperature with vortexing every 2-3 minutes. Proteinase K was added to the eluates and incubated at 50° C. for 45 minutes. Trizol reagent was then added to the solution, and RNA bound to RIG-I was purified following manufacturer's protocol. RNA quality was analyzed using an Agilent Bioanalyzer 2100 with Pico Series II cartridges. RNA yield was measured using the Qubit RNA Broad Range kit. For qRT-PCR validation experiments of RIG-I pulled down RNA, UV cross-linking (2 doses at 150 mJ/cm^2) was performed on HEK293 and HCT116 overexpressing RIG-I prior to cell lysis. The same protocol for pulldown and RNA purification experiments was performed as described above.

| Molecule | levels in RIG-I pulldown after IR (HEK293 overexpressing K858A-K861A RNA binding deficient mutant RIG-I) | binding to K858A-K861A RNA binding deficient mutant RIG-I (CLIP-PCR) |
| --- | --- | --- |
| U2: snRNA, SEQ ID NO:21 | did not detect increased levels | – |
| B1 | – | did not bind |
